This assay has as its target T1, recombinant CETP (rCETP) (Homo sapiens, UniProt P11597).
T1 sequence (P11597 18-493): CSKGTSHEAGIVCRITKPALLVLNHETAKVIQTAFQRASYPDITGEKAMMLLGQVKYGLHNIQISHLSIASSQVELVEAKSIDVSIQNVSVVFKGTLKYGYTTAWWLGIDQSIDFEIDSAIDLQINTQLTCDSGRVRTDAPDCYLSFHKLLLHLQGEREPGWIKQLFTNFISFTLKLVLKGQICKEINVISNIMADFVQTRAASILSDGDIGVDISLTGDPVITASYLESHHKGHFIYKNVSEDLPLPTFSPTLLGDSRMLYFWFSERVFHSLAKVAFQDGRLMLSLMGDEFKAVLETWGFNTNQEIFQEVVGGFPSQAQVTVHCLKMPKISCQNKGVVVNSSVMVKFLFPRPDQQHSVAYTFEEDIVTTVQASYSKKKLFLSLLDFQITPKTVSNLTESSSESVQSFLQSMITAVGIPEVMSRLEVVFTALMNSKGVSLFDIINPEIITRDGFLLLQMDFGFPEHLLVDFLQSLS
Kind of assay: RTA assay using recombinant CETP (2% RTA). Particulars: RTA assay in 2% human serum; read-out: IC50. The assay is classed as biochemical. In short, it runs like this: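 Compounds preincubated 1 h at 37 °C with assay cocktail (CETP buffer: 50 mM Tris pH 7.4, 100 mM NaCl, 1 mM EDTA; human HDL acceptor); transfer started with [3H]cholesteryl oleate- or [3H]triolein-labelled LDL, 60 min at 37 °C. LDL PEG-precipitated; supernatant counted by scintillation, blank-corrected; IC50 from 4-parameter sigmoidal fit of % inhibition vs DMSO control.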

Turning to `COc1ccc([C@H]2CC[C@H](C(=O)O)CC2)cc1-c1cnc(N2CC(OC)C2)nc1CN1C(=O)O[C@H](c2cc(C(F)(F)F)cc(C(F)(F)F)c2)[C@@H]1C` [Example 186], the IC50 – broadly, the concentration that gives 50% inhibition – was determined as 137 nM.
With `COc1ccc(-c2ncc(C(=O)O)n2C)cc1-c1ccc(N2CCC2)nc1CN1C(=O)O[C@H](c2cc(C(F)(F)F)cc(C(F)(F)F)c2)[C@@H]1C` [Example 117], the IC50 came to 25 nM.
The value for `COc1ccc(C2CCC(O)C2)cc1-c1ccc(N2CCC2)nc1CN1C(=O)O[C@H](c2cc(C(F)(F)F)cc(C(F)(F)F)c2)[C@@H]1C` (mixture of isomers) [Example 262] was 3 nM; that for `COc1ccc(-c2cc(C(=O)O)on2)cc1-c1ccc(N2CCC2)nc1CN1C(=O)O[C@H](c2cc(C(F)(F)F)cc(C(F)(F)F)c2)[C@@H]1C` [Example 93] was 18 nM.
For `COC(=O)CC(C)(C)c1ccc(OC)c(-c2ccc(N3CCC3)nc2CN2C(=O)O[C@H](c3cccc(C(F)(F)F)c3)[C@@H]2C)c1` [Example 195] the value was 44 nM; for `COC(=O)CCc1ccc(OC)c(-c2ccc(N3CCC3)nc2CN2C(=O)O[C@H](c3cc(F)cc(F)c3)[C@@H]2C)c1` [Example 14], 87 nM; for `CCOC(=O)[C@@H]1C[C@H]1c1ccc(OC)c(-c2ccc(N3CCC3)nc2CN2C(=O)O[C@H](c3cccc(C)c3)[C@@H]2C)c1` [Example 209], 99 nM.
Take `COc1ccc([C@H]2C[C@@H]2C(=O)O)cc1-c1ccc(N2CCC2)nc1CN1C(=O)O[C@H](c2cc(F)cc(F)c2)[C@@H]1C` [Example 84]: the concentration for half-maximal inhibition (IC50) amounted to 73 nM.
For `COC(=O)CC(C)(C)c1ccc(OC)c(-c2cnc(N3CCC3)nc2CN2C(=O)O[C@H](c3cc(C(F)(F)F)cc(C(F)(F)F)c3)[C@@H]2C)c1` [Example 145] the value was 16 nM.
For `COC(=O)[C@@H]1CC[C@@H](c2ccc(OC)c(-c3c(C)cc(N4CCC4)nc3CN3C(=O)O[C@H](c4cc(C(F)(F)F)cc(C(F)(F)F)c4)[C@@H]3C)c2)C1` (mixture of isomers) [Example 216], the IC50 is 9 nM.
The value for `COc1cc(F)c(-c2ccc(C(=O)O)cc2C)cc1-c1cnc(N2CC(F)(F)C2)nc1CN1C(=O)O[C@H](c2cc(C(F)(F)F)cc(C(F)(F)F)c2)[C@@H]1C` [Example 161] was 7 nM; that for `COc1ccc(-c2ncc(C(=O)O)s2)cc1-c1ccc(N2CCC2)nc1CN1C(=O)O[C@H](c2cc(C(F)(F)F)cc(C(F)(F)F)c2)[C@@H]1C` [Example 114] was 50 nM; that for `COc1ccc(CCCO)cc1-c1ccc(N2CCC2)nc1CN1C(=O)O[C@H](c2cc(C(F)(F)F)cc(C(F)(F)F)c2)[C@@H]1C` [Example 264, (4S,5R)-3-({6-azetidin-1-yl-3-[5-(3-hydroxypropy)-2-methoxyphenyl]pyridin-2-yl}methyl)-5-[3,5-bis(trifluoromethyl)phenyl]-4-methyl-1,3-oxazolidin-2-one] was 2 nM.
`COc1ccc([C@H]2CC[C@H](C(=O)O)CC2)cc1-c1cnc(N2CC(F)(F)C2)nc1CN1C(=O)O[C@H](c2cc(C(F)(F)F)cc(C(F)(F)F)c2)[C@@H]1C` [Example 157]: the IC50 came to 10 nM.
The value for `COc1ccc([C@H]2C[C@H](C(=O)OC)C2)cc1-c1ccc(N2CCC2)nc1CN1C(=O)O[C@H](c2cc(C(F)(F)F)cc(C(F)(F)F)c2)[C@@H]1C` [Example 24] was 2 nM; that for `COc1ccc([C@H]2CC[C@H](C(=O)OC)CC2)cc1-c1ccc(N2CCC2)nc1CN1C(=O)O[C@H](c2cccc(C(F)(F)F)c2)[C@@H]1C` [Example 194] was 145 nM; that for `COC(=O)c1ccc(-c2cc(-c3cnc(N4CC(F)(F)C4)nc3CN3C(=O)O[C@H](c4cc(C(F)(F)F)cc(C(F)(F)F)c4)[C@@H]3C)c(OC)cc2F)c(C)c1` [Example 132] was 4 nM.
For `COc1ccc(-c2sc(C(=O)O)c(C)c2C)cc1-c1ccc(N2CCC2)nc1CN1C(=O)O[C@H](c2cc(C(F)(F)F)cc(C(F)(F)F)c2)[C@@H]1C` [Example 111] the value was 5 nM; for `COc1cc(F)c([C@H]2C[C@H](C(=O)O)C2)cc1-c1ccc(N2CCC2)nc1CN1C(=O)O[C@H](c2cc(C(F)(F)F)cc(C(F)(F)F)c2)[C@@H]1C` [Example 104], 4 nM.
Take `COC(=O)c1ccc(-c2ccc(OC)c(-c3ccc(N4CCC4)nc3CN3C(=O)O[C@H](c4cc(C(F)(F)F)cc(C(F)(F)F)c4)[C@@H]3C)c2)cn1` [Example 58]: the IC50 was 29 nM.
The value for `COC(=O)CC(C)(C)c1ccc(OC)c(-c2ccc(N3CCC3)nc2CN2C(=O)O[C@H](c3cc(F)cc(F)c3)[C@@H]2C)c1` [Example 15] was 159 nM; that for `COc1ccc([C@H]2CC[C@H](C(=O)O)CC2)cc1-c1cnc(N2CC(F)C2)nc1CN1C(=O)O[C@H](c2cc(C(F)(F)F)cc(C(F)(F)F)c2)[C@@H]1C` [Example 185] was 12 nM; that for `COc1ccc([C@H]2CC[C@H](C(=O)O)CC2)cc1-c1cnc(N2CCC2)nc1CN1C(=O)O[C@H](c2cc(C(F)(F)F)cc(C(F)(F)F)c2)[C@@H]1C` [Example 154] was 27 nM.
For `COc1ccc(CC(C)(C)C(=O)O)cc1-c1cnc(N2CCC2)nc1CN1C(=O)O[C@H](c2cc(C(F)(F)F)cc(C(F)(F)F)c2)[C@@H]1C` [Example 156] the value was 42 nM.
For `CCOC(=O)[C@@H]1C[C@H]1c1ccc(OC)c(-c2ccc(N3CCC3)nc2CN2C(=O)O[C@H](c3cc(C(F)(F)F)cc(C(F)(F)F)c3)[C@@H]2C)c1` [Example 3], the IC50 was determined as 6 nM.
The value for `COc1ccc(-c2ccc(C(=O)O)cc2C)cc1-c1ccc(N2CCC2)nc1CN1C(=O)O[C@H](c2cc(C)cc(C)c2)[C@@H]1C` [Example 236] was 13 nM.
The value for `C[C@H]1[C@@H](c2cc(C(F)(F)F)cc(C(F)(F)F)c2)OC(=O)N1Cc1nc(N2CCC2)ncc1-c1cc(CCC(=O)O)ccc1Cl` [Example 280] was 23 nM.
The value for `COc1ccc(CC(C)(C)C(=O)OC(C)(C)C)cc1-c1ccc(N2CCC2)nc1CN1C(=O)O[C@H](c2cccc(C(F)(F)F)c2)[C@@H]1C` [Example 196] was 381 nM; that for `COc1cc2c(cc1-c1ccc(N3CCC3)nc1CN1C(=O)O[C@H](c3cccc(C)c3)[C@@H]1C)[C@H](CC(=O)O)CC2` [Example 231] was 403 nM.
As for `COC(=O)Cc1ccc(OC)c(-c2c(C)cc(N3CCC3)nc2CN2C(=O)O[C@H](c3cc(C(F)(F)F)cc(C(F)(F)F)c3)[C@@H]2C)c1` [Example 40], the IC50 stood at 3 nM.
The value for `COC(=O)CCc1ccc(OC)c(-c2c(C)cc(N3CCC3)nc2CN2C(=O)O[C@H](c3cc(C(F)(F)F)cc(C(F)(F)F)c3)[C@@H]2C)c1` (single isomer, unassigned) [Example 39] was 3 nM; that for `Cc1cc(C(=O)O)ccc1-c1cccc(-c2cnc(N3CCC3)nc2CN2C(=O)O[C@H](c3cccc(C(F)(F)F)c3)[C@@H]2C)c1` [Example 275] was 605 nM.
For `COc1ccc(CC(C)(C)C(=O)OC(C)(C)C)cc1-c1ccc(N2CCC2)nc1CN1C(=O)O[C@H](c2cc(C(F)(F)F)cc(C(F)(F)F)c2)[C@@H]1C` [Example 10] the value was 63 nM; for `COc1ccc(CC(=O)O)cc1-c1ccc(N2CCC2)nc1CN1C(=O)O[C@H](c2cc(C(F)(F)F)cc(C(F)(F)F)c2)[C@@H]1C` [Example 80], 36 nM.

(Values after patent US9221834B2 (Merck Sharp & Dohme Corp., priority 2010, dated 2015).)
